In US20240197869A1, “HYPERACTIVATORS OF MAMMALIAN DENDRITIC CELLS” (Corner Therapeutics, Inc., priority 2021, published 2024):

Legend:
[1] = test system: canine peripheral blood mononuclear cells (PBMCs); assay: IL-1β secretion by canine PBMCs (ELISA); assay type: cell-based; details: stimulus as labelled, no hyperactivating lipid, 2 days
Method: (§1) Isolation of PBMCs from Whole Blood. PBMCs were isolated from whole blood using density gradient centrifugation with Ficoll-Paque PLUS (Cytivia). Whole blood was diluted 1:1 with PBS, layered on top of Ficoll-Paque PLUS and centrifuged at 1000×g for 30 minutes at room temperature. PBMCs were collected, washed twice in PBS, and incubated with Ack lysis buffer (Lonza) to remove any remaining red blood cells.
(§2) Cell Culture and Stimulation. […] Cells were plated at 1×10^5 (canine cells) or 1×10^6 (human cells) per well in 96-well flat bottom tissue culture plates. Lyophilized Vaccigrade R848 (Invivogen) was reconstituted and diluted according to manufacturer's recommendations and added to cells at a final concentration of 1 μg/mL.
Quantification of Cytokine Secretion. IL-1β secretion from human PBMCs was assessed using one of the following kits: ELISA MAX Deluxe Set Human IL-1β kit (Biolegend), Invitrogen Human IL-1β kit, or the Lumit™ Human IL-1β Immunoassay (Promega). IFNγ secretion from human PBMCs was assessed using the ELISA MAX Deluxe Set Human IFNγ (Biolegend) and TNFα secretion from human PBMCs was assessed using the Human TNFα Uncoated ELISA kit (Invitrogen). […] IL-1β secretion from canine PBMCs was assessed using the Canine IL-1β/IL-1F2 DuoSet ELISA (R&D) according to manufacturer's instructions with the following modifications: i) total sample+buffer volume for incubation was reduced from 100 μL to 50 μL; ii) sample incubation was completed overnight at 4° C. on an orbital shaker. For all ELISAs, absorbance was measured at 450 nm, with a 570 nm correction, using a Spectramax M5e plate reader (Molecular Devices). For Lumit™ assays, luminescence was measured on all wavelengths using a Spectramax M5e plate reader (Molecular Devices) with an integration time of 500 ms. […]

human PBMCs [2] = assay: Cytokine secretion (IL-1β, IFNγ, TNFα) by human PBMCs; assay type: cell-based; details: 2 days
Method: as §1, §2
Quantification of Cytokine Secretion. IL-1β secretion from human PBMCs was assessed using one of the following kits: ELISA MAX Deluxe Set Human IL-1β kit (Biolegend), Invitrogen Human IL-1β kit, or the Lumit™ Human IL-1β Immunoassay (Promega). IFNγ secretion from human PBMCs was assessed using the ELISA MAX Deluxe Set Human IFNγ (Biolegend) and TNFα secretion from human PBMCs was assessed using the Human TNFα Uncoated ELISA kit (Invitrogen). ELISAs were performed according to manufacturer's instructions with the following modifications: i) total sample+buffer volume for incubation was reduced from 100 μL to 50 μL; ii) the top standard was prepared at […], with two-fold dilutions to […]; and iii) sample incubation was completed overnight at 4 C on an orbital shaker. Lumit™ assays were performed according to manufacturer's instructions. IL-1β secretion from canine PBMCs was assessed using the Canine IL-1β/IL-1F2 DuoSet ELISA (R&D) according to manufacturer's instructions with the following modifications: i) total sample+buffer volume for incubation was reduced from 100 μL to 50 μL; ii) sample incubation was completed overnight at 4° C. on an orbital shaker. For all ELISAs, absorbance was measured at 450 nm, with a 570 nm correction, using a Spectramax M5e plate reader (Molecular Devices). For Lumit™ assays, luminescence was measured on all wavelengths using a Spectramax M5e plate reader (Molecular Devices) with an integration time of 500 ms. To determine cytokine concentrations in supernatants, sample concentrations were interpolated using a standard curve via 4PL analysis on GraphPad Prism 9 (GraphPad Software). The interpolated results of samples were then adjusted for any dilutions made to the supernatant.

[3] = test system: human monocyte-derived dendritic cells (moDCs); assay: DAMP screen: IL-1β secretion by LPS-activated human moDCs (ELISA); assay type: cell-based
Method: Danger-Associated Molecular Pattern (DAMP) Screen.
(§3) Quantification of IL-1beta Secretion. IL-1beta secretion was assessed using the ELISA MAX Deluxe Set Human IL-1beta kit (Biolegend). ELISAs were performed according to manufacturer's instructions with the following modifications: i) total sample volume for incubation was reduced from […] the top standard was prepared at […], with two-fold dilutions to […]; and iii) sample incubation was completed overnight at 4 C on an orbital shaker. […] To determine IL-1beta concentration in supernatants, sample IL-1beta concentrations were interpolated using a standard curve via 4PL analysis on GraphPad Prism 9 (GraphPad Software). The interpolated results of samples were then adjusted for any dilutions made to the supernatant.

[4] = test system: human monocyte-derived dendritic cells (moDCs); assay: Lipid titration: IL-1β secretion by LPS-activated human moDCs; assay type: cell-based; details: for Activity Units (AU) ± SD (lipid activity index): reciprocal of lowest concentration giving IL-1β two-fold over LPS x highest IL-1β signal, lipid 1.3-82.5 μM + LPS
Method: as §3

[5] = test system: human monocyte-derived dendritic cells (moDCs); assay: DAMP screen: viability of human moDCs (CellTiter-Glo)
[6] = test system: human monocyte-derived dendritic cells (moDCs); assay: Lipid titration: viability of human moDCs (CellTiter-Glo); details: 10.3 μM lipid + LPS 1 μg/mL, 2 days; relative to LPS-treated moDCs; Table 1-5
[7] = test system: canine peripheral blood mononuclear cells (PBMCs); assay: Viability of canine PBMCs (CellTiter-Glo); assay type: cell-based; details: lipid combined with R848, 2 days; relative to R848 alone
Method: as §1, §2
(§4) Quantification of Cell Viability.

human PBMCs [8] = assay: Viability of human PBMCs (CellTiter-Glo); assay type: cell-based; details: 2 days post-activation; lipids combined with R848
Method: as §1, §2, §4

non-human primate PBMCs = assay: Cytokine secretion by non-human primate PBMCs (LegendPlex); assay type: cell-based, cynomolgus macaques
Method: Non-human primate PBMC hyperactivation. Whole blood from cynomolgus macaques was diluted with an equal volume of PBS. A solution of 90% Ficoll-Paque PLUS and 10% RPMI was made, and diluted whole blood was overlayed on top of the diluted Ficoll. Cells were centrifuged at 1000 rcf for 30 minutes at room temperature with no brakes. The buffy coat layer was collected and washed twice with PBS. If red blood cell contamination was present, cells were incubated in ACK lysis buffer for 2 minutes before being washed with PBS to remove lysed red blood cells.
Isolated PBMC were plated at 1×10^6 cells/well and cultured with or without hyperactivating stimuli. After 2 days incubation, cells were assessed for viability, and cell culture supernatant was used to measure cytokine output. Commercially available kits such as Biolegend LegendPlex kits were used as directed by manufacturer's protocol to quantify cytokines of interest.
PBMC were obtained from 13 cynomolgus macaques. Each activation condition was tested in triplicate, and the mean value of the triplicate is graphed for the animal sample. Repeated measures one-way ANOVA was used to test for statistical significance followed by Dunnett's multiple comparisons test.

[9] = 41.3 μM lipid + LPS 1 μg/mL, 2 days, Table 1-2
[10] = 82.5 μM lipid + LPS, selected lipids, Table 1-3 (repeats Table 1-1)
[11] = 10.3 μM lipid + LPS 1 μg/mL, 2 days, Table 1-5
[12] = 20.6 μM lipid + LPS, human moDCs, 4 donors, mean (SD in wrapped line below)
[13] = 41.3 μM lipid + LPS 1 μg/mL, 2 days, relative to LPS-treated moDCs, Table 1-2
[14] = 82.5 μM lipid + LPS 1 μg/mL, 2 days, relative to LPS-treated moDCs, Table 1-1
[15] = 82.5 uM lipid + R848 vs R848 alone, 2 days

SMILES: Nc1nc2c(ncn2[C@@H]2O[C@@H]3COP(=O)(O)O[C@H]4[C@@H](O)[C@H](n5cnc6c(N)ncnc65)O[C@@H]4COP(=O)(O)O[C@@H]2[C@@H]3O)c(=O)[nH]1 [2′3′cGAMP, reference compound]
- IL-1β secretion (in words) [1]: neither GM-CSF nor 2′3′cGAMP induced significant IL-1β secretion
- IFNγ secretion, fold change relative to R848 alone (in words) (human PBMCs [2]; stimulus as labelled, no hyperactivating lipid): neither GM-CSF nor 2′3′cGAMP elicited a substantial fold change in IFNγ secretion over R848 alone

SMILES: CCCCCCCCCCCCCCCCCCCCCCCC(=O)OC[C@@H](O)COP(=O)([O-])OCC[N+](C)(C)C [24:0 LYSO PC, 1-lignoceroyl-2-hydroxy-sn-glycero-3-phosphocholine]
- IL-1β secretion [3, 9]: 38.8 pg/mL
- IL-1β secretion [3, 10]: 39.7 pg/mL
- IL-1β secretion [4, 11]: 36.5 pg/mL
- IL-1β secretion [4, 12]: 36.6 pg/mL
- Relative Viability (%) ± SD [5, 13]: 94.6%
- Relative Viability (%) ± SD [5, 14]: 96.0%
- Relative Viability (%) ± SD [5, 10]: 96.0%
- Relative Viability (%) ± SD [6]: 96.8%

SMILES: CCCCCCCCCCCCCCCC(=O)OC[C@H](COP(=O)([O-])OCC[N+](C)(C)C)OC(=O)CCCCCCCC(=O)O [PAzePC, 1-palmitoyl-2-azelaoyl-sn-glycero-3-phosphocholine, reference compound]
- IL-1β secretion [3, 9]: 191.7 pg/mL
- IL-1β secretion [3, 10]: 153.4 pg/mL
- IL-1β secretion [4, 11]: 47.9 pg/mL
- IL-1β secretion [4, 12]: 59.0 pg/mL
- Activity Units (AU) ± SD (lipid activity index) [4]: 1.81 ± 1.95 AU
- Relative Viability (%) ± SD [5, 13]: 95.6%
- Relative Viability (%) ± SD [5, 14]: 78.8%
- Relative Viability (%) ± SD [5, 10]: 78.8%
- Relative Viability (%) ± SD [6]: 98.0%

SMILES: CCCCCCCCCCCCCCCC(=O)OC[C@H](COP(=O)([O-])OCC[N+](C)(C)C)OC(=O)CCCC(=O)O [PGPC, 1-palmitoyl-2-glutaryl-sn-glycero-3-phosphocholine, reference compound]
- IL-1β secretion [3, 9]: 132.9 pg/mL
- IL-1β secretion [3, 10]: 271.6 pg/mL
- IL-1β secretion [4, 11]: 52.8 pg/mL
- IL-1β secretion [4, 12]: 69.2 pg/mL
- Activity Units (AU) ± SD (lipid activity index) [4]: 3.46 ± 4.14 AU
- relative cell viability (in words) [7]: somewhat toxic to canine PBMCs
- IL-1β secretion (in words) (human PBMCs [2]; lipid 82.5 μM combined with R848 1 μg/mL): did not induce substantially higher levels of IL-1β than R848 alone
- human PBMC viability (in words) (human PBMCs [8]): not observed to be toxic
- cytokine fold changes relative to R848 alone (in words) (non-human primate PBMCs; 41.3 uM lipid + R848): not as markedly increased
- IL-1beta output (in words) (non-human primate PBMCs; 82.5 uM lipid + R848 1 μg/mL vs R848 alone, 2 days): increased the IL-1beta output
- IFN-beta secretion (in words) (non-human primate PBMCs; [15]): increased
- IFN-gamma secretion (in words) (non-human primate PBMCs; [15]): significantly increased
- IL-8 secretion (in words) (non-human primate PBMCs; [15]): increased
- IL-17a secretion (in words) (non-human primate PBMCs; [15]): increased
- IL-23 secretion (in words) (non-human primate PBMCs; [15]): increased
- Relative Viability (%) ± SD [5, 13]: 87.2%
- Relative Viability (%) ± SD [5, 14]: 58.6%
- Relative Viability (%) ± SD [5, 10]: 58.6%
- moDC viability (in words) ([5]; human moDCs, lipid screens of Example 1): not observed to be toxic
- Relative Viability (%) ± SD [6]: 98.5%
